Experimental findings from patent publication US9067949B2, “Benzofuro[3,2-c] pyridines and related analogs as serotonin sub-type 6 (5-HT6) modulators for the treatment of obesity, metabolic syndrome, cognition and schizophrenia” (Albany Molecular Research, Inc., priority 2011, dated 2015) are described below.

The target of this test is human 5-HT6 receptor (Homo sapiens (Human), UniProt P50406). Kind of test: 5-HT6 radioligand binding assay (SPA format, [N-methyl-3H]-LSD). The settings on record: human 5-HT6 receptor membranes, 10 nM [N-methyl-3H]-LSD; Ki by Cheng-Prusoff; read-out: human 5HT6 Ki. How it is done: The relative affinities of the various compounds for the 5-HT6 receptor were measured in a radioligand binding assay, using a scintillation proximity assay (SPA) format.
human 5-HT6 receptor, sequence (P50406 whole entry): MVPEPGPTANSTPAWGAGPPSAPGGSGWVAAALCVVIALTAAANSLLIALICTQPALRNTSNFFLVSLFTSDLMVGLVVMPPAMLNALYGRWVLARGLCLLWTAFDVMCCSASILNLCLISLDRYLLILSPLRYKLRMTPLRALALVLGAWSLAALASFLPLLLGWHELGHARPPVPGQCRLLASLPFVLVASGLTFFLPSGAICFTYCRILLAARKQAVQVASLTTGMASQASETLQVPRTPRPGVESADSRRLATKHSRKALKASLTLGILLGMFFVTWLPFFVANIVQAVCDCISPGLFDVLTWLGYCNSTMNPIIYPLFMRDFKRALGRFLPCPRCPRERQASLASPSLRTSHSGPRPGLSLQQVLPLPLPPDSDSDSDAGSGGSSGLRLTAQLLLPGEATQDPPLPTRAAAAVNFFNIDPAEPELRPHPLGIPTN
For binding analysis vs. the human receptor, samples were incubated in 50 mM Tris-HCl, pH 7.5, 5 mM MgCl2, 1 mM EDTA (4% DMSO final) with 10 nM [N-methyl-^3H]-LSD (Perkin Elmer), 2.5 ng of human 5-HT6 receptor membranes (Millipore) and 50 μg SPA beads (PVT-PEI-WGA, GE Healthcare) per well in a final volume of 0.2 mL. […] Binding reactions were performed in PicoPlate96 microtiter plates (Perkin Elmer) by consecutively adding 50 μL of each competing compound or buffer, SPA beads, radioligand and 5-HT6 receptor membranes. After an overnight incubation at room temperature on a Nutator mixer, plates were centrifuged for 15 min at 1,500 rpm, followed by incubation in the dark for 10 min. […] Total binding control contained compound dilution buffer only; nonspecific binding is determined in the presence of 100 μM 5-hydroxytryptamine. Specific binding was determined by subtracting nonspecific binding from total binding.
All experiments were performed in duplicate using ten concentrations of competing ligand, with clozapine included as a control in every run. IC50 values were determined from specific binding data using XLfit4.1 curve fitting software from IDBS Ltd. The inhibition constant (Ki) was calculated using the Cheng-Prusoff equation: (Ki=IC50/(1+(L/KD)), where L=concentration of radioligand in the assay, and KD=affinity of the radioligand for the receptor.

For `O=S(=O)(c1ccc(C2CCO2)cc1)c1cc(Cl)c2oc3c(c2c1)CNCC3` (stereo not drawn) [Example 126], the Ki stood at 10 nM.

For the molecule `O=S(=O)(c1ccc(F)c(F)c1)c1cc(Cl)c2oc3c(c2c1)CNCC3` [Example 127], the Ki worked out at 4 nM.

For the molecule `O=S(=O)(c1ccc(F)cc1)c1cc(Cl)c2oc3c(c2c1)CNCC3` [Example 128], the inhibitory constant (Ki) amounted to 3 nM.

Turning to `O=S(=O)(c1cc(F)cc(F)c1)c1cc(Cl)c2oc3c(c2c1)CNCC3` [Example 129], the Ki came out at 9.9 nM.

`O=S(=O)(c1cc(Cl)cc(Cl)c1)c1cc(Cl)c2oc3c(c2c1)CNCC3` [Example 130]: the Ki amounted to 6 nM.

For `O=S(=O)(c1ccc(C(O)C(F)(F)F)cc1)c1cc(Cl)c2oc3c(c2c1)CNCC3` (stereo not drawn) [Example 131], the Ki came out at 7.6 nM.

Consider `O=S(=O)(c1cccc(C(O)C(F)(F)F)c1)c1cc(Cl)c2oc3c(c2c1)CNCC3` (stereo not drawn) [Example 132], for which the Ki worked out at 3.3 nM.

As for `O=S(=O)(c1cc(Cl)c2oc3c(c2c1)CNCC3)c1csc2ccccc12` [Example 133], the Ki was found to be 0.26 nM.

For the molecule `O=S(=O)(c1ccc2sccc2c1)c1cc(Cl)c2oc3c(c2c1)CNCC3` [Example 134], the Ki is 0.55 nM.

For `CC(O)c1ccccc1S(=O)(=O)c1cc(Cl)c2oc3c(c2c1)CNCC3` (stereo not drawn) [Example 135], the inhibitory constant (Ki) worked out at 20 nM.

On to `CC(O)c1cccc(S(=O)(=O)c2cc(Cl)c3oc4c(c3c2)CNCC4)c1` (stereo not drawn) [Example 136], for which the Ki is 3 nM.

As for `CC(O)c1ccc(S(=O)(=O)c2cc(Cl)c3oc4c(c3c2)CNCC4)cc1` (stereo not drawn) [Example 137], the Ki is 5.6 nM.

Turning to `C[C@H](O)c1cccc(S(=O)(=O)c2cc(Cl)c3oc4c(c3c2)CNCC4)c1` [Example 138], the inhibition constant (Ki) amounted to 5.1 nM.

For `C[C@@H](O)c1cccc(S(=O)(=O)c2cc(Cl)c3oc4c(c3c2)CNCC4)c1` [Example 139], the inhibition constant (Ki) came out at 2.7 nM.

For the molecule `C[C@H](O)c1ccc(S(=O)(=O)c2cc(Cl)c3oc4c(c3c2)CNCC4)cc1` [Example 140], the Ki was found to be 16 nM.

With `C[C@@H](O)c1ccc(S(=O)(=O)c2cc(Cl)c3oc4c(c3c2)CNCC4)cc1` [Example 141], the Ki was found to be 3.1 nM.

As for `CC(C)(O)c1ccccc1S(=O)(=O)c1cc(Cl)c2oc3c(c2c1)CNCC3` [Example 142], the inhibition constant (Ki) is 25 nM.

For `O=S(=O)(c1ccc2[nH]ccc2c1)c1cc(Cl)c2oc3c(c2c1)CNCC3` [Example 143], the Ki was 0.13 nM.

Turning to `CS(=O)(=O)N1CCc2oc3c(Cl)cc(S(=O)(=O)c4ccccc4)cc3c2C1` [Example 144], the Ki came to 492 nM.

With `CN(C)CC(=O)N1CCc2oc3c(Cl)cc(S(=O)(=O)c4ccccc4)cc3c2C1` [Example 145], the Ki came out at 66 nM.

For `O=S(=O)(c1ccccc1)c1cc(Cl)c2oc3c(c2c1)CN(CCO)CC3` [Example 146], the Ki stood at 1.6 nM.

Consider `CC(C)(O)CN1CCc2oc3c(Cl)cc(S(=O)(=O)c4ccccc4)cc3c2C1` [Example 147], for which the Ki stood at 1.2 nM.

On to `CN(C)C(=O)CN1CCc2oc3c(Cl)cc(S(=O)(=O)c4ccccc4)cc3c2C1` [Example 148], for which the Ki was found to be 45 nM.

Consider `COCCN1CCc2oc3c(Cl)cc(S(=O)(=O)c4ccccc4)cc3c2C1` [Example 149], for which the Ki was 1.6 nM.

`O=S(=O)(c1ccccc1)c1cc(Cl)c2oc3c(c2c1)CN(C1COC1)CC3` [Example 150]: the inhibition constant Ki worked out at 76 nM.

For the molecule `CC(O)CN1CCc2oc3c(Cl)cc(S(=O)(=O)c4ccccc4)cc3c2C1` (stereo not drawn) [Example 151], the Ki came to 1.7 nM.

`CC(CO)N1CCc2oc3c(Cl)cc(S(=O)(=O)c4ccccc4)cc3c2C1` (stereo not drawn) [Example 152]: the Ki turned out to be 3.4 nM.

With `O=S(=O)(c1cc(Cl)c2oc3c(c2c1)CNCC3)c1ccccc1C(F)(F)F` [Example 153], the Ki was 6.1 nM.

Turning to `O=S(=O)(c1ccc(C2CCOC2)cc1)c1cc(Cl)c2oc3c(c2c1)CNCC3` (stereo not drawn) [Example 154], the Ki was determined as 5.6 nM.

In the case of `CC(=O)N1CCc2oc3c(Cl)cc(S(=O)(=O)c4cn(C)c5ccccc45)cc3c2C1` [Example 155], the Ki was 167 nM.

Turning to `O=S(=O)(c1ccc2c(c1)COC2)c1cc(Cl)c2oc3c(c2c1)CNCC3` [Example 156], the Ki worked out at 7.6 nM.

With `C=C(C)c1cccc(S(=O)(=O)c2cc(Cl)c3oc4c(c3c2)CNCC4)c1` [Example 157], the inhibition constant (Ki) amounted to 0.66 nM.

In the case of `COc1cc(S(=O)(=O)c2ccc3c(c2)CCOC3)cc2c3c(oc12)CCNC3` [Example 158], the Ki was found to be 0.48 nM.

For the molecule `COc1cc(S(=O)(=O)c2ccccc2CO)cc2c3c(oc12)CCNC3` [Example 159], the Ki is 1.5 nM.

As for `COc1cc(S(=O)(=O)c2cccc(OC(F)F)c2)cc2c3c(oc12)CCNC3` [Example 160], the Ki worked out at 0.11 nM.

For the molecule `COc1cc(S(=O)(=O)c2ccc(F)c(F)c2)cc2c3c(oc12)CCNC3` [Example 161], the Ki came to 0.32 nM.

For `COc1cc(S(=O)(=O)c2ccc(C(F)(F)F)cc2)cc2c3c(oc12)CCNC3` [Example 162], the Ki was determined as 0.49 nM.

For `COc1cc(S(=O)(=O)c2ccccc2F)cc2c3c(oc12)CCNC3` [Example 163], the Ki stood at 0.19 nM.

For `COc1cc(S(=O)(=O)c2ccc(OC(F)F)cc2)cc2c3c(oc12)CCNC3` [Example 164], the Ki turned out to be 0.4 nM.

With `COc1cc(S(=O)(=O)c2ccc(OC(F)(F)F)cc2)cc2c3c(oc12)CCNC3` [Example 165], the Ki worked out at 1.9 nM.

With `COc1cc(S(=O)(=O)c2cccc(F)c2)cc2c3c(oc12)CCNC3` [Example 166], the inhibitory constant (Ki) came to 0.2 nM.

In the case of `COc1cc(S(=O)(=O)c2cccc(C(F)(F)F)c2)cc2c3c(oc12)CCNC3` [Example 167], the Ki was 0.13 nM.

Regarding `COc1cc(S(=O)(=O)c2cccc(OC(F)(F)F)c2)cc2c3c(oc12)CCNC3` [Example 168], the Ki worked out at 0.19 nM.

Consider `COc1cc(S(=O)(=O)c2ccc(F)cc2)cc2c3c(oc12)CCNC3` [Example 169], for which the Ki worked out at 0.75 nM.

For the molecule `COc1cc(S(=O)(=O)c2ccc(C(C)O)cc2)cc2c3c(oc12)CCNC3` (stereo not drawn) [Example 170], the Ki was 2.9 nM.

Consider `COc1cc(S(=O)(=O)c2ccc([C@H](C)O)cc2)cc2c3c(oc12)CCNC3` [Example 171], for which the Ki is 8.6 nM.

With `COc1cc(S(=O)(=O)c2ccc([C@@H](C)O)cc2)cc2c3c(oc12)CCNC3` [Example 172], the inhibitory constant (Ki) stood at 1.9 nM.

Consider `COc1cc(S(=O)(=O)c2cccc(C(C)O)c2)cc2c3c(oc12)CCNC3` (stereo not drawn) [Example 173], for which the Ki was determined as 0.6 nM.

For `COc1cc(S(=O)(=O)c2cccc([C@@H](C)O)c2)cc2c3c(oc12)CCNC3` [Example 174], the Ki came to 0.69 nM.

Regarding `COc1cc(S(=O)(=O)c2cccc([C@H](C)O)c2)cc2c3c(oc12)CCNC3` [Example 175], the Ki was found to be 1.2 nM.

As for `COc1cc(S(=O)(=O)c2ccc(C(C)(C)O)cc2)cc2c3c(oc12)CCNC3` [Example 176], the Ki turned out to be 0.74 nM.

With `COc1cc(S(=O)(=O)c2cccc(C(C)(C)O)c2)cc2c3c(oc12)CCNC3` [Example 177], the Ki was determined as 0.35 nM.

Regarding `COc1cc(S(=O)(=O)c2cccc(C(O)C(F)(F)F)c2)cc2c3c(oc12)CCNC3` (stereo not drawn) [Example 178], the inhibition constant Ki is 0.32 nM.

`COc1cc(S(=O)(=O)c2ccc(C3CCOC3)cc2)cc2c3c(oc12)CCNC3` (stereo not drawn) [Example 180]: the inhibitory constant (Ki) worked out at 2.2 nM.

On to `COc1cc(S(=O)(=O)c2cn(C)c3ccccc23)cc2c3c(oc12)CCNC3` [Example 183], for which the Ki was 0.16 nM.

For `COc1cc(S(=O)(=O)c2ccc3sccc3c2)cc2c3c(oc12)CCNC3` [Example 184], the Ki amounted to 0.16 nM.

Consider `COc1cc(S(=O)(=O)c2csc3ccccc23)cc2c3c(oc12)CCNC3` [Example 185], for which the Ki was 0.1 nM.

With `COc1cc(S(=O)(=O)c2cc(F)cc(F)c2)cc2c3c(oc12)CCNC3` [Example 186], the Ki is 0.33 nM.

Regarding `COc1cc(S(=O)(=O)c2ccsc2)cc2c3c(oc12)CCNC3` [Example 187], the Ki came out at 0.27 nM.

Take `COc1cc(S(=O)(=O)c2cc(F)cc(Cl)c2)cc2c3c(oc12)CCNC3` [Example 188]: the Ki was found to be 0.11 nM.

`COc1cc(S(=O)(=O)c2ccc(Cl)cc2)cc2c3c(oc12)CCNC3` [Example 189]: the Ki was found to be 0.28 nM.

Turning to `COc1cc(S(=O)(=O)c2cccc(Cl)c2)cc2c3c(oc12)CCNC3` [Example 190], the Ki was 0.05 nM.

`COc1cc(S(=O)(=O)c2cc(Cl)cc(Cl)c2)cc2c3c(oc12)CCNC3` [Example 191]: the Ki worked out at 0.23 nM.

Regarding `COc1cc(S(=O)(=O)c2cccs2)cc2c3c(oc12)CCNC3` [Example 192], the Ki came out at 0.17 nM.

Consider `COc1cc(S(=O)(=O)c2ccc3c(c2)COC3)cc2c3c(oc12)CCNC3` [Example 193], for which the inhibitory constant (Ki) was found to be 0.8 nM.

Consider `Cc1cc(S(=O)(=O)c2ccccc2F)cc2c3c(oc12)CCNC3` [Example 194], for which the Ki was determined as 0.39 nM.

As to `Cc1cc(S(=O)(=O)c2cccc(Cl)c2)cc2c3c(oc12)CCNC3` [Example 195], the Ki was found to be 0.28 nM.

Consider `Cc1cc(S(=O)(=O)c2ccc(Cl)cc2)cc2c3c(oc12)CCNC3` [Example 196], for which the inhibition constant (Ki) was found to be 1.1 nM.

Consider `Cc1cc(S(=O)(=O)c2cc(F)cc(F)c2)cc2c3c(oc12)CCNC3` [Example 197], for which the Ki is 1.3 nM.
